Data from patent publication EP0288278B1, “Chemical derivatives of GHL-CU” (PROCYTE CORPORATION, priority 1987, dated 1994).

Tested on: incision wounds
Assay: Wound healing of incision wounds in mice
Format: in vivo
Details: incision wounds swabbed daily, scored after 5 days
Excerpt: In mice, incision wounds to the flanks (six 1.5 cm wounds per animal) were swabbed daily with either a solution containing GHL-Cu (100 micrograms per mL) in phosphate-buffered saline (PBS) or PBS alone (6 animals each group). After 5 days, the wounds were scored 1.0 for complete closure, 0.5 for partial closure, and 0.0 for non-closure.

glycyl-L-histidyl-L-lysine n-palmityl ester: copper (II)
healing of wounds in mice: significantly enhances the wound-healing process

glycyl-L-histidyl-L-lysine n-stearyl ester: copper (II)
healing of wounds in mice: significantly enhances the wound-healing process
